Consider six compounds from patent publication US20240216343A1, “ENDOTHELIAL IK AND SK CHANNEL ACTIVATION TO TREAT PULMONARY HYPERTENSION” (UNIVERSITY OF VIRGINIA PATENT FOUNDATION, priority 2023, published 2024).

Molecules are shown by their SMILES. “Also recorded” adds a separate entry of the source.

In one data set the test system is large PAs. As to conditions: rats exposed to chronic hypoxia; reference (49); cited from earlier work.
In data set [1] the test system is Su+CH mouse model of PH. Description: RVSP measurement after acute treatment. The class given is in vivo. As for the experimental part:
(§1) PH was induced by exposing C57BL6/J mice to chronic hypoxia (CH; 10% 02: 4 weeks) with concurrent treatment with the receptor tyrosine kinase inhibitor, SU5416 (20 mg·kg^−1), administered subcutaneously (s.c.) once a week (20). SU5416 was dissolved in DMSO/PEG 400 (50/50). Mice were exposed to CH conditions in a vinyl hypoxic chamber (Coy Laboratory Products; Inc. Grass Lake; MI; USA) connected to an auto purge airlock inlet. Oxygen concentration in the glove box was regulated by an oxygen controller and oxygen sensor (Coy Laboratory Products, Inc.). Control mice were maintained in room air for 4 weeks.
(§2) Mice were anesthetized with pentobarbital (50 mg·kg^−1; i.p.), and bupivacaine HCl (100 μL of 0.25% solution; s.c.) was used to numb the dissection site on the mouse. RVSP was measured as an indirect indicator of PAP (18, 21). Mice were cannulated with a Mikro-Tip pressure catheter (SPR-671; Millar Instruments; Houston; TX; USA), connected to a bridge amp (FE221) and a PowerLab 4/35 4-channel recorder (ADInstruments; Colorado Springs; CO; USA), through the external jugular vein into the right ventricle. Right ventricular pressure was acquired and analyzed using LabChart8 software (ADInstruments). In the subgroup of mice treated with SKA-31 (30 mg·kg^−1; i.p.), RVSP was measured before SKA-31 injection and 20 minutes after. A stable 3-minute recording was acquired for all animals, and a 1-minute continuous segment was used for data analysis. Where necessary, traces were digitally filtered using a low-pass filter at a cut-off frequency of 50 Hz. At the end of experiments, mice were euthanized, and their hearts were isolated for right ventricular hypertrophy analysis. Right ventricular hypertrophy was determined by calculating the Fulton index, a ratio of the right ventricular (RV) heart weight over the left ventricular (LV) plus septum (S) weight (RV/LV+S).

The nature of data set [2]: Cardiac functional magnetic resonance imaging. The class given is in vivo, mouse. As to conditions: acute SKA-31 administration.
The conditions of data set [3]: cited from earlier work.
Another data set has as its system IK/SK channels. Particulars: reference (37); cited from earlier work.
For data set [4] the following is noted: reference (33); cited from earlier work.
The test system of data set [5] is Su+CH mouse model of PH. Description: Chronic treatment: RVSP, Fulton index and PA remodeling (histology, immunostaining). The format is in vivo. As for the experimental part: as §1
For PA remodeling studies, mice in the experimental group were treated with the IK/SK channel activator, SKA-31 (30 mg·kg^−1; i.p.), twice a day for the final 7 days of Su+CH exposure. Control mice were exposed to Su+CH for 4 weeks but were injected with vehicle instead of SKA-31. At the end of week 4 of Su+CH exposure, mice were euthanized with pentobarbital (90 mg·kg^−1; i.p.; UVA Hospital Pharmacy) and left lungs were perfused with the NO donor and fast-acting vasodilator, SNP (50 μmol/L; Sigma Aldrich), followed by incubation overnight at room temperature with 4% paraformaldehyde (PFA) for histology and immunostaining.
as §2
Isolated left lungs were perfused with PBS containing 50 μmol/L SNP and fixed in 4% PFA overnight at room temperature before paraffin embedding and sectioning. After sectioning paraffinized lungs, sections (5-μm thick) were deparaffinized and incubated in endogenous peroxidase (30%) for 30 minutes at room temperature, followed by a 5-minute wash with double-distilled H2O. For antigen retrieval, sections were microwaved in a citrate-based antigen unmasking solution (Vector Laboratories; Newark; CA; USA) for 20 minutes with brief pauses to avoid boiling. After allowing slides to cool in the antigen unmasking solution for 1 hour at room temperature, sections were permeabilized by incubating with 0.2% Triton-X for 30 minutes on a shaking rocker at room temperature, then blocked by incubating with 0.2% Triton-X, 5% normal donkey serum (ab7475; Abcam; Cambridge; MA; USA) and fish skin gelatin (FSG; Sigma Aldrich) for 1 hour. […]

The test system of the next data set is fourth-order PAs. Description: Pressure myography of mouse fourth-order PAs. The text has this: Mouse fourth-order PAs (˜50 μm) were cannulated on glass micropipettes in a pressure myography chamber (The Instrumentation and Model Facility; University of Vermont; Burlington; VT; USA) and pressurized to a physiological pressure of 15 mm Hg (24). Briefly, freshly dissected lungs were placed in ice cold HEPES buffer in a dissection plate. The left lung was stretched and pinned down, with ventral side facing up. First, pulmonary veins, and then the airway were cut open to gain access to the pulmonary arteries underneath. Once PAs were visible, they were gently separated from surrounding tissue (25). Arteries were superfused with bicarbonate-physiological salt solution (PSS; 119 mmol/L NaCl; 4.7 mmol/L KCl; 1.2 mmol/L KH2PO4; 1.2 mmol/L MgCl2 hexahydrate; 2.5 mmol/L CaCl2) dihydrate; 7 mmol/L dextrose; and 24 mmol/L NaHCO3) at 37° ° C. and bubbled with 20% O2/5% CO2 to maintain the pH at 7.4. Approximately 20% PAs from normal mice develop myogenic tone, whereas ˜65% PA from Su+CH mice show myogenic tone at 15 mm Hg. Due to the relatively small percentage of PAs from normal mice showing myogenic tone, we pre-constricted all PAs with 30 nmol/L U46619 (a thromboxane A2 receptor agonist). […] U46619 was added to the chamber immediately, before the arteries could develop myogenic tone. Before measuring vascular reactivity, arteries were treated with NS309 (1 μmol/L), a direct activator of endothelial IK/SK channels, to assess endothelial health. […] Changes in arterial diameter were recorded at a 60-ms frame rate using a charge-coupled device camera and edge-detection software (IonOptix LLC; Westwood; MA; USA) (11, 26). At the end of each experiment, Ca^2+-free PSS (119 mmol/L NaCl; 4.7 mmol/L KCl; 1.2 mmol/L KH2PO4; 1.2 mmol/L MgCl2 hexahydrate; 7 mmol/L dextrose; 24 mmol/L NaHCO3; and 5 mmol/L EGTA) was applied to assess the maximum passive diameter. Percent constriction was calculated by:
[formula] • where Diameterbefore is the diameter of the artery before treatment and Diameterafter is the diameter after treatment. Percent dilation was calculated by:
[formula] • where Diameterbasal is the stable diameter before drug treatment, Diameterdilated is the diameter after drug treatment, and Diameterca-free is the maximum passive diameter.

The subject of data set [6] is IK/SK channels in SMCs from PAs. Briefly: Whole-cell patch-clamp in freshly isolated SMCs from small PAs. The format is cell-based, mouse. As to conditions: TRAM-34 1 μmol/L and Apa 300 nmol/L added together after NS309 1 μmol/L; SMCs from control or Su+CH mice. How it is done: For SMC isolation (27), arterial segments were transferred to a 12×75 mm borosilicate glass culture tube containing 1 mL dissociation solution (145 mmol/L NaCl; 4 mmol/L KCl; 1 mmol/L MgCl2; 10 mmol/L HEPES; 0.05 mmol/L CaCl2), 10 mmol/L glucose; pH 7.3) and 0.5 mg/mL bovine serum albumin (BSA) and incubated for 10 minutes at room temperature (˜24° C.). The solution was then replaced with 1 mL dissociation solution containing 1 mg/mL papain (Sigma Aldrich) and 0.5 mg/mL dithiothreitol (Sigma Aldrich), and incubation was continued at 37° C. for 20 minutes. […]
Whole-cell currents were measured at room temperature using conventional whole-cell patch-clamp electrophysiology. […] The pipette solution for conventional patch clamp consisted of 10 mmol/L HEPES, 123.2 mmol/L KCl, 10 mmol/L NaCl, 5.5 mmol/L MgCl2, 0.2 mmol/L CaCl2) and 5 mmol/L HEDTA (adjusted to pH 7.2 with 16.8 mm KOH) and contained 3 μm free-Ca^2+ and 1 mmol/L free-Mg^2+, as calculated using the Max-Chelator program (Chris Patton; Stanford University; Stanford; CA; USA). […] Data were acquired using a Multiclamp 700B amplifier connected to a Digidata 1550B system and analyzed using Clampfit 11.1 software (Molecular Devices, San Jose, CA, USA).
NS309-induced ionic currents were measured in freshly isolated SMCs (FIG. 4A) from PAs in whole-cell patch-clamp experiments (FIGS. 4B and 4C).

[7] abbreviates: 30 mg·kg−1 i.p. twice a day for 7 days.

In the case of `CCn1c(=O)n(CC)c2c(Cl)c(Cl)ccc21` [NS4591], the “Dilatory response of large PAs after chronic hypoxia” value with large PAs is “decreases”.
With `Nc1nc2c(ccc3ccccc32)s1` [SKA-31, naphtho[1,2-d]thiazol-2-ylamine], in the data set with Su+CH mouse model of PH [1] (30 mg·kg−1 i.p., RVSP before and 20 minutes after injection, Su+CH mice), the “RVSP in Su+CH mice, acute treatment” value is recorded as “significantly reduced; also recorded: lowered”. For the same compound, the “RVSP in normal (N) mice, acute treatment” value in the data set on Su+CH mouse model of PH [1] (30 mg·kg−1 i.p., normoxic/control mice) is reported as “not in N mice; also recorded: not observed in normal mice; also recorded: not in control mice”. Besides, the “PAP in Su+CH mice, acute treatment” value in the data set on Su+CH mouse model of PH [1] (acute SKA-31, Su+CH mice but not control mice) is given as “lowered”. Also, in data set [2], the Cardiac output entry is listed as “does not alter”, the Ejection fraction entry was “does not alter”, the Heart rate result is “does not alter” and the Stroke volume entry is “does not alter”. Moreover, in data set [3] (reason for in vivo use instead of NS309, reference (33)), the Metabolism result is “favorable metabolism”. Moreover, the Half-life in vivo entry in [3] (references (37, 38)) is “longer half-life”. In addition, the “Potency as activator of IK/SK channels relative to NS309” value in the data set on IK/SK channels was “less potent”. In addition, the “Resting systemic blood pressure” value in data set [4] is “lowered”. In the data set on Su+CH mouse model of PH [5] (setting [7]), the “Collagen content of PAs (Masson's Trichrome) in Su+CH mice” value is “reduced”; the “Fulton index (right ventricular hypertrophy) in Su+CH mice, chronic treatment” value is reported as “significantly lowered; also recorded: reduced”; the “α-actin immunostaining of PAs in Su+CH mice” value is recorded as “reduced”. In addition, the “RVSP in Su+CH mice, chronic treatment” value in the data set with Su+CH mouse model of PH [5] (30 mg·kg−1 i.p. twice a day for 7 days, fourth week of Su+CH) is “significantly lowered”. Further, in the data set with Su+CH mouse model of PH [5] (chronic SKA-31), the “Pulmonary artery lesions in Su+CH mice, chronic treatment” value is “reduced”.
For the compound `Nc1ncnc2c1ncn2[C@@H]1O[C@H](COP(=O)(O)OP(=O)(O)OP(=O)(O)O)[C@@H](O)[C@H]1O` [ATP, adenosine triphosphate], the “Dilation of PAs from CH+Su mice” value with fourth-order PAs (CH+Su mice) is reported as “unable to dilate”.
Turning to `NC(=NCCC[C@H](N)C(=O)O)N[N+](=O)[O-]` [L-NNA], the “Constriction of PAs from Su+CH mice” value with fourth-order PAs (L-NNA 100 μmol/L, Su+CH mice) was “unable constrict”. Moreover, the “Constriction of PAs from N mice” value in the data set on fourth-order PAs (L-NNA 100 μmol/L, normoxic mice) is roughly 20%.
For `Clc1ccccc1C(c1ccccc1)(c1ccccc1)n1cccn1` [TRAM-34], the “Effect on NS309-induced outward currents in SMCs” value in data set [6] is “did not reduce”. Besides, in the data set on fourth-order PAs (TRAM-34 1 μmol/L and Apa 300 nmol/L applied together, not different between N and Su+CH mice), the “Constriction of small PAs” value is on record as roughly 10%.
As to `CCCCC[C@H](O)/C=C/[C@@H]1[C@@H](C/C=C\CCCC(=O)O)[C@H]2CO[C@@H]1C2` [U46619], the “Arteries showing a constriction” value in the data set with fourth-order PAs (U46619 30 nmol/L, both normal and PH groups) is “More than 95%”.
